In patent publication US9890407B2, “Method for synthesizing cellulose in vitro” (University of Virginia Patent Foundation, priority 2013, dated 2018):

Target: T1, Rhodobacter sphaeroides BcsA-B complex (cellulose synthase), wild type, BcsA SEQ ID NO: 1, BcsB SEQ ID NO: 3 (Cereibacter sphaeroides, UniProt Q3J125)
T1 construct: pETDuet, E. coli C43; purified, reconstituted in nanodiscs, proteoliposomes or detergent
T1 sequence (Q3J125 1-788): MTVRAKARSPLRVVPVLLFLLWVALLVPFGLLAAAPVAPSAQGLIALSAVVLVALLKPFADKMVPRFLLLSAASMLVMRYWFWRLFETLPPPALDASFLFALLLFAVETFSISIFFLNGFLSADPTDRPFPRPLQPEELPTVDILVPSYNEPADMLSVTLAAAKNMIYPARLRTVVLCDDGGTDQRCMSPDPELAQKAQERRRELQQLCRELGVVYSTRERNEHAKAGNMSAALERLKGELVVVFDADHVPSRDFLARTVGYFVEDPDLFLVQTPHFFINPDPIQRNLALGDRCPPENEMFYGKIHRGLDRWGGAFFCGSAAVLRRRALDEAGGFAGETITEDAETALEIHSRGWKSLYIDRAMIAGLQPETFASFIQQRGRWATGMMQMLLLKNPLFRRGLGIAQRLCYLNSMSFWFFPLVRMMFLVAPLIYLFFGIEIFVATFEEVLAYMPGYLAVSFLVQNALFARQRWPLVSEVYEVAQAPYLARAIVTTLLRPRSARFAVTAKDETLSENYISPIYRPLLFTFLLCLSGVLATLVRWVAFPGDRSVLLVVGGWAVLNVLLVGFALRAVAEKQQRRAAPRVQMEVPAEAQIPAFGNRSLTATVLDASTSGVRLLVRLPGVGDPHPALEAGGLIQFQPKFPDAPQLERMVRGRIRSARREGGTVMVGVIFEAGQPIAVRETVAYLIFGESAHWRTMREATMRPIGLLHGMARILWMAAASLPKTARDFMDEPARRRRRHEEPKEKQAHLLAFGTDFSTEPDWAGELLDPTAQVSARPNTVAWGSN
T1 sequence (Q3J126 21-725 partner): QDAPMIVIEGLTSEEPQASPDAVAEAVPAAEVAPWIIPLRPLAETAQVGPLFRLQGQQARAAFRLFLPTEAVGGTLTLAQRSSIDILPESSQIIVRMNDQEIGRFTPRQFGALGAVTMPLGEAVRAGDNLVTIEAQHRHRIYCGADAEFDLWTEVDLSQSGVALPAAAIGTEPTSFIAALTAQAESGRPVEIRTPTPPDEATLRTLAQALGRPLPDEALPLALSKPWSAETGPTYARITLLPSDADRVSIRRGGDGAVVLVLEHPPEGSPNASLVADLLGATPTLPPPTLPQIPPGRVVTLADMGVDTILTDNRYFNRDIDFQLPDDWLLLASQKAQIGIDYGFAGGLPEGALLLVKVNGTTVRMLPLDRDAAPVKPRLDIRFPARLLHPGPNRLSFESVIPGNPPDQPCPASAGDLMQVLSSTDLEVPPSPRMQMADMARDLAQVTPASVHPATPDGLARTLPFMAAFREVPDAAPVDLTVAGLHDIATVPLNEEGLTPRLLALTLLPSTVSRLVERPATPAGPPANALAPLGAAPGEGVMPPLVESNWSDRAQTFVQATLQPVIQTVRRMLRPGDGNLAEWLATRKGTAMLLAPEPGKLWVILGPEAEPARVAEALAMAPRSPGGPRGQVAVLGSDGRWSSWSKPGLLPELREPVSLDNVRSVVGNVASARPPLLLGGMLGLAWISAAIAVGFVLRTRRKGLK
Assay: Cellulose synthesis sedimentation assay, inhibition by nucleoside diphosphates, PL-reconstituted BcsA-B
Format: biochemical
Settings: 0.5 mM UDP-Glc; increasing nucleotide concentrations; 60 min, 37° C.
Method: FIG. 4A-4C (also referred to as Example 1, FIG. 4): Product inhibition of cellulose synthase. (FIG. 4A) Enzyme-coupled cellulose synthesis assays were performed as described in FIG. 3 in the absence or presence of 0.1 mg/ml E. coli BesZ. […] Inset: Radioactive sedimentation assay performed with ND-reconstituted BcsA-B synthesizing cellulose in the absence or presence of BcsZ. (FIG. 4B) Inhibition of cellulose synthesis by UDP. Cellulose synthesis sedimentation assays were performed with 1 μM PL-reconstituted BesA-B in the presence of increasing concentrations of the indicated nucleotides and 0.5 mM UDP-Glc for 60 min at 37° C. The obtained product is quantified relative to the polymer formed in the absence of any nucleoside diphosphate. (FIG. 4C) UDP is a competitive inhibitor of cellulose synthase. […] The products are quantified relative to the polymer formed in the absence of UDP and the presence of 5 mM UDP-Glc. […]
Standard cellulose synthase sedimentation assays were performed by incubating 1 μM of cellulose synthase complexes, either in PLs, ND or detergent micelles, in the presence of 30 μM c-di-GMP, 20 mM MgCl2, 5 mM UDP-Glc and 0.25 μCi UDP-[3H]-Glc in AB-buffer lacking glycerol and containing only 0.1 M NaCl. […] Following paper chromatography, the high molecular weight polymer retained at the origin was quantified by scintillation counting. […]

| SMILES | inhibition of cellulose synthesis by nucleoside diphosphates |
| --- | --- |
| Nc1nc2c(ncn2[C@@H]2O[C@H](COP(=O)(O)OP(=O)(O)O)[C@@H](O)[C@H]2O)c(=O)[nH]1 [guanosine-diphosphate] | do not inhibit cellulose synthesis |
| Nc1ncnc2c1ncn2[C@@H]1O[C@H](COP(=O)(O)OP(=O)(O)O)[C@@H](O)[C@H]1O [adenosine-diphosphate] | do not inhibit cellulose synthesis |
